Data taken from ChEMBL document CHEMBL1201862, “PubChem BioAssay data set” (2004).
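Cultured in 96-well plates, cells were exposed to test compound for 48 hours across five concentrations. GI50 = concentration required for 50% inhibition of growth.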 Activity calls are given as the source filed them. No stated cut-off is given here; in the data, active = GI50 up to about 1.1 µM and inactive = higher.

Assays:
Test in all cases: NCI-60 cell line screen, 48 h
[1] = test system: 786-0
[2] = test system: A498
[3] = test system: BT-549
[4] = test system: CCRF-CEM
[5] = test system: DU-145
[6] = test system: HCT-116
[7] = test system: HOP-92
[8] = test system: K562
[9] = test system: Malme-3M
[10] = test system: NCI-H226
[11] = test system: NCI-H460
[12] = test system: NCI/ADR-RES
[13] = test system: OVCAR-5
[14] = test system: PC-3
[15] = test system: SK-MEL-2
[16] = test system: SK-OV-3
[17] = test system: T47D
[18] = test system: TK-10
[19] = test system: U-251
[20] = test system: UO-31

SMILES	GI50 [1]	GI50 [2]	GI50 [3]	GI50 [4]	GI50 [5]	GI50 [6]	GI50 [7]	GI50 [8]	GI50 [9]	GI50 [10]	GI50 [11]	GI50 [12]	GI50 [13]	GI50 [14]	GI50 [15]	GI50 [16]	GI50 [17]	GI50 [18]	GI50 [19]	GI50 [20]
Oc1cc(Br)cc2cccnc12	9.51 µM (inactive)	8.36 µM (inactive)	5.15 µM (inactive)	0.597 µM (active)	9.91 µM (inactive)	1.78 µM (inactive)	5.15 µM (inactive)	0.82 µM (active)	3.05 µM (inactive)	8.41 µM (inactive)	1.31 µM (inactive)	1.25 µM (inactive)	5.12 µM (inactive)	3.17 µM (inactive)	15.6 µM (inactive)	27.6 µM (inactive)	3.59 µM (inactive)	31.5 µM (inactive)	1.58 µM (inactive)	1.5 µM (inactive)
O=C1/C(=C/C=C/c2ccccc2)CCC1CNc1ccccc1 (stereo not given)	16.6 µM (inactive)	> 27 µM (inactive)	32.1 µM (inactive)	3.48 µM (inactive)	> 93.3 µM (inactive)	17.9 µM (inactive)	47.8 µM (inactive)	2.71 µM (inactive)	58.6 µM (inactive)	> 100 µM (inactive)	> 88.7 µM (inactive)	96.8 µM (inactive)	> 65.8 µM (inactive)	36 µM (inactive)	–	> 100 µM (inactive)	26.2 µM (inactive)	33 µM (inactive)	> 59.3 µM (inactive)	59.8 µM (inactive)
CC1C(=O)OCC2=CCN3CCC(OC(=O)C(C)C1(C)O)C23 (stereo not given)	> 100 µM (inactive)	> 100 µM (inactive)	> 100 µM (inactive)	> 100 µM (inactive)	> 100 µM (inactive)	> 100 µM (inactive)	> 100 µM (inactive)	> 100 µM (inactive)	> 100 µM (inactive)	> 100 µM (inactive)	> 100 µM (inactive)	> 100 µM (inactive)	> 100 µM (inactive)	> 100 µM (inactive)	> 100 µM (inactive)	> 100 µM (inactive)	> 100 µM (inactive)	> 100 µM (inactive)	> 100 µM (inactive)	> 100 µM (inactive)
C[C@H]1C(OCCOC2O[C@@H]3O[C@@]4(C)CC[C@H]5[C@H](C)CCC([C@H]2C)[C@@]35O4)O[C@@H]2O[C@@]3(C)CC[C@H]4[C@H](C)CCC1[C@@]24O3 (stereo not given in full)	27 µM (inactive)	46.7 µM (inactive)	95.7 µM (inactive)	30.5 µM (inactive)	19.5 µM (inactive)	21 µM (inactive)	45.3 µM (inactive)	> 100 µM (inactive)	15.8 µM (inactive)	28.2 µM (inactive)	22.6 µM (inactive)	25.1 µM (inactive)	50.7 µM (inactive)	28.5 µM (inactive)	17.7 µM (inactive)	74.6 µM (inactive)	10.6 µM (inactive)	–	40.9 µM (inactive)	–
CCOC(=O)C1C(=O)CC1(C)C (stereo not given)	> 10 µM (inactive)	> 10 µM (inactive)	> 10 µM (inactive)	> 10 µM (inactive)	> 10 µM (inactive)	> 10 µM (inactive)	> 10 µM (inactive)	> 10 µM (inactive)	> 10 µM (inactive)	> 10 µM (inactive)	> 10 µM (inactive)	> 10 µM (inactive)	> 10 µM (inactive)	> 10 µM (inactive)	> 10 µM (inactive)	> 10 µM (inactive)	> 10 µM (inactive)	> 10 µM (inactive)	> 10 µM (inactive)	> 10 µM (inactive)
C=C1C(=O)O[C@@H]2/C=C(\C)CC/C=C(/COC(C)=O)C[C@@H](OC(C)=O)[C@@H]12	5.18 µM (inactive)	19 µM (inactive)	3.91 µM (inactive)	0.718 µM (active)	6.79 µM (inactive)	3.85 µM (inactive)	7.73 µM (inactive)	3.21 µM (inactive)	1.46 µM (inactive)	19.8 µM (inactive)	12.1 µM (inactive)	17.9 µM (inactive)	17.4 µM (inactive)	16.1 µM (inactive)	16 µM (inactive)	40.6 µM (inactive)	11.4 µM (inactive)	7.83 µM (inactive)	18.7 µM (inactive)	8.87 µM (inactive)
FC(F)(Sc1nc2ccccc2[nH]1)c1nc2ccccc2o1	> 100 µM (inactive)	> 100 µM (inactive)	75.5 µM (inactive)	> 100 µM (inactive)	> 100 µM (inactive)	> 100 µM (inactive)	> 100 µM (inactive)	> 100 µM (inactive)	24.4 µM (inactive)	> 100 µM (inactive)	> 100 µM (inactive)	> 100 µM (inactive)	> 100 µM (inactive)	> 100 µM (inactive)	> 100 µM (inactive)	> 100 µM (inactive)	> 100 µM (inactive)	> 100 µM (inactive)	> 100 µM (inactive)	> 100 µM (inactive)
CCOc1ccc(C2Oc3c(cccc3OC)C=C2[N+](=O)[O-])cc1OCC (stereo not given)	3.04 µM (inactive)	9.57 µM (inactive)	5.96 µM (inactive)	1.35 µM (inactive)	14.6 µM (inactive)	1.5 µM (inactive)	12.6 µM (inactive)	1.87 µM (inactive)	2.3 µM (inactive)	21.9 µM (inactive)	7.28 µM (inactive)	3.15 µM (inactive)	9.59 µM (inactive)	9.33 µM (inactive)	5.64 µM (inactive)	27.5 µM (inactive)	15.7 µM (inactive)	15.5 µM (inactive)	6.49 µM (inactive)	2.64 µM (inactive)
COc1cc(CC(C)=O)cc(OC)c1	> 100 µM (inactive)	35 µM (inactive)	52.5 µM (inactive)	29.8 µM (inactive)	> 100 µM (inactive)	50.6 µM (inactive)	29.9 µM (inactive)	33.3 µM (inactive)	51.2 µM (inactive)	50.9 µM (inactive)	> 100 µM (inactive)	52.4 µM (inactive)	> 100 µM (inactive)	11.3 µM (inactive)	–	> 100 µM (inactive)	53.8 µM (inactive)	> 100 µM (inactive)	63.5 µM (inactive)	32.6 µM (inactive)
CCOC(=O)C(C)c1nc2c(Cl)c3ncccc3cc2[nH]c1=O (stereo not given)	> 100 µM (inactive)	> 100 µM (inactive)	57 µM (inactive)	28.2 µM (inactive)	> 100 µM (inactive)	76.9 µM (inactive)	29.8 µM (inactive)	34 µM (inactive)	> 100 µM (inactive)	53.3 µM (inactive)	–	29.9 µM (inactive)	> 100 µM (inactive)	40.7 µM (inactive)	> 100 µM (inactive)	> 100 µM (inactive)	64.3 µM (inactive)	59.7 µM (inactive)	30.8 µM (inactive)	23.7 µM (inactive)
